Paper PMC10169810, “Ligand-induced activation and G protein coupling of prostaglandin F2α receptor” (Nature Communications, 2023)
“And” between values parts separate entries of the source, which are not always exact repeats. Equal values may be shown once.

What was measured:
[1] = biological target: T1, FP I298A (Homo sapiens, UniProt P43088, I298A); experiment: IP-One accumulation assay, FP I298A mutant; assay type: cell-based; details: I298A mutant vs WT FP; IP1 accumulation, AD293 cells; single values of n = 3 independent samples
T1 construct: Flag; expressed in transfected cells; host or cells: AD293 cells
Procedure: (§1) IP-One production was measured using the IP-One HTRF kit (Cisbio)[50]. Briefly, AD293 cells (Agilent) were grown to a density of 400,000–500,000 cells per mL and then […] with separate plasmids at a suitable concentration. The culture was collected by centrifugation 24 h after incubation at 37 °C in 5% CO2 with a Stimulation Buffer. The cell suspension was then dispensed in a white 384-well plate at a volume of 7 μl per well before adding 7 μl of ligands. The mixture was incubated for 1 h at 37 °C. IP-One-d2 and anti-IP-One Cryptate dissolved in Lysis Buffer (3 μl each) were subsequently added and incubated for 15-30 min at room temperature before measurement. Intracellular IP-One measurement was carried out with the IP-One HTRF kit and EnVision multi-plate reader (PerkinElmer) according to the manufacturer’s instructions. Data were normalized to the baseline response of the ligand. pEC50 Emin, and Emax for each curve were calculated by GraphPad Prism 8.0. ∆pEC50 equals pEC50 of agonists to specific Mutant minus pEC50 of agonists to WT. Data are presented as mean values ± SEM; n = 3 independent samples; n.s. no significant; *p < 0.05; **p < 0.01; ***p < 0.001.

[2] = biological target: T2, FP T294A (Homo sapiens, UniProt P43088, T294A); experiment: IP-One accumulation assay, FP T294A mutant; assay type: cell-based
T2 construct: Flag; expressed in transfected cells; host or cells: AD293 cells
Procedure: as §1

[3] = biological target: T3, FP F205A (Homo sapiens, UniProt P43088, F205A); experiment: IP-One accumulation assay, FP F205A mutant; assay type: cell-based; details: F205A mutant vs WT FP; IP1 accumulation, AD293 cells; single values of n = 3 independent samples
T3 construct: Flag; expressed in transfected cells; host or cells: AD293 cells
Procedure: as §1

[4] = biological target: T4, FP F265A (Homo sapiens, UniProt P43088, F265A); experiment: IP-One accumulation assay, FP F265A mutant; assay type: cell-based; details: F265A mutant vs WT FP; IP1 accumulation, AD293 cells; single values of n = 3 independent samples
T4 construct: Flag; expressed in transfected cells; host or cells: AD293 cells
Procedure: as §1

[5] = biological target: T5, FP Q297A (Homo sapiens, UniProt P43088, Q297A); experiment: IP-One accumulation assay, FP Q297A mutant; assay type: cell-based; details: Q297A mutant vs WT FP; IP1 accumulation, AD293 cells; single values of n = 3 independent samples
T5 construct: Flag; expressed in transfected cells; host or cells: AD293 cells
Procedure: as §1

[6] = test system: EP1; design: method as in PMID 10785618; details: cited from earlier work
[7] = test system: FP; design: method as in PMID 10785618; details: cited from earlier work
[8] = biological target: T6, FP S33A (Homo sapiens, UniProt P43088, S33A); experiment: IP-One accumulation assay, FP S33A mutant; assay type: cell-based; details: S33 to alanine vs WT FP
T6 construct: Flag; expressed in transfected cells; host or cells: AD293 cells
Procedure: as §1

[9] = biological target: T7, FP R291A (Homo sapiens, UniProt P43088, R291A); experiment: IP-One accumulation assay, FP R291A mutant; assay type: cell-based; details: R291 mutant (alanine) vs WT FP
T7 construct: Flag; expressed in transfected cells; host or cells: AD293 cells
Procedure: as §1

[10] = biological target: T8, FP Y92A (Homo sapiens, UniProt P43088, Y92A); experiment: IP-One accumulation assay, FP Y92A mutant; assay type: cell-based; details: Y92 mutant (alanine) vs WT FP
T8 construct: Flag; expressed in transfected cells; host or cells: AD293 cells
Procedure: as §1

[11] = biological target: T9, FP W185A (Homo sapiens, UniProt P43088, W185A); experiment: IP-One accumulation assay, FP W185A mutant; assay type: cell-based; details: W185A mutant vs WT FP; IP1 accumulation, AD293 cells; single values of n = 3 independent samples
T9 construct: Flag; expressed in transfected cells; host or cells: AD293 cells
Procedure: as §1

[12] = test system: EP3; design: method as in PMID 10785618; details: cited from earlier work
[13] = biological target: T10, FP S118N (Homo sapiens, UniProt P43088, S118N); experiment: IP-One accumulation assay, FP S118N mutant; assay type: cell-based
T10 construct: Flag; expressed in transfected cells; host or cells: AD293 cells
Procedure: as §1

[14] = biological target: T11, FP S118F (Homo sapiens, UniProt P43088, S118F); experiment: IP-One accumulation assay, FP S118F mutant; assay type: cell-based; details: S118F mutant vs WT FP; IP1 accumulation, AD293 cells; single values of n = 3 independent samples
T11 construct: Flag; expressed in transfected cells; host or cells: AD293 cells
Procedure: as §1

[15] = biological target: T12, FP T184A (Homo sapiens, UniProt P43088, T184A); experiment: IP-One accumulation assay, FP T184A mutant; assay type: cell-based; details: T184 mutant (alanine) vs WT FP
T12 construct: Flag; expressed in transfected cells; host or cells: AD293 cells
Procedure: as §1

[16] = biological target: T13, FP M115A (Homo sapiens, UniProt P43088, M115A); experiment: IP-One accumulation assay, FP M115A mutant; assay type: cell-based; details: M115 to alanine vs WT FP
T13 construct: Flag; expressed in transfected cells; host or cells: AD293 cells
Procedure: as §1

[17] = biological target: T14, FP S118A (Homo sapiens, UniProt P43088, S118A); experiment: IP-One accumulation assay, FP S118A mutant; assay type: cell-based
T14 construct: Flag; expressed in transfected cells; host or cells: AD293 cells
Procedure: as §1

[18] = biological target: T15, FP I290A (Homo sapiens, UniProt P43088, L290A); experiment: IP-One accumulation assay, FP I290A mutant; assay type: cell-based; details: I290A mutant vs WT FP; IP1 accumulation, AD293 cells; single values of n = 3 independent samples
T15 construct: Flag; expressed in transfected cells; host or cells: AD293 cells
Procedure: as §1

T2 sequence (P43088 whole entry T294A): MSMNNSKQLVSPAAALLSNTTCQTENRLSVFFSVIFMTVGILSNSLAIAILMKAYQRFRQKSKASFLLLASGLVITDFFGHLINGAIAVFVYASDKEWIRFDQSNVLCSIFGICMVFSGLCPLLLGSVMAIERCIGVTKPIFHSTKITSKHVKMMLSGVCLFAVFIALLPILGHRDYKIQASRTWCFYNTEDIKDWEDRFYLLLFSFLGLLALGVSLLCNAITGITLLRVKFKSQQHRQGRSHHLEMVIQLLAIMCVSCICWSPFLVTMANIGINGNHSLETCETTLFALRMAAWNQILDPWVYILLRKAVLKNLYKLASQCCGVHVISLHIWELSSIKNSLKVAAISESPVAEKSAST
T11 sequence (P43088 whole entry S118F): as the sequence (P43088 whole entry T294A) above, with S118F, A294T counted along it
T10 sequence (P43088 whole entry S118N): as the sequence (P43088 whole entry T294A) above, with S118N, A294T counted along it
T15 sequence (P43088 whole entry L290A): as the sequence (P43088 whole entry T294A) above, with L290A, A294T counted along it
T3 sequence (P43088 whole entry F205A): as the sequence (P43088 whole entry T294A) above, with F205A, A294T counted along it
T14 sequence (P43088 whole entry S118A): as the sequence (P43088 whole entry T294A) above, with S118A, A294T counted along it
T9 sequence (P43088 whole entry W185A): as the sequence (P43088 whole entry T294A) above, with W185A, A294T counted along it
T4 sequence (P43088 whole entry F265A): as the sequence (P43088 whole entry T294A) above, with F265A, A294T counted along it
T5 sequence (P43088 whole entry Q297A): as the sequence (P43088 whole entry T294A) above, with A294T, Q297A counted along it
T1 sequence (P43088 whole entry I298A): as the sequence (P43088 whole entry T294A) above, with A294T, I298A counted along it
T13 sequence (P43088 whole entry M115A): as the sequence (P43088 whole entry T294A) above, with M115A, A294T counted along it
T12 sequence (P43088 whole entry T184A): as the sequence (P43088 whole entry T294A) above, with T184A, A294T counted along it
T6 sequence (P43088 whole entry S33A): as the sequence (P43088 whole entry T294A) above, with S33A, A294T counted along it
T7 sequence (P43088 whole entry R291A): as the sequence (P43088 whole entry T294A) above, with R291A, A294T counted along it
T8 sequence (P43088 whole entry Y92A): as the sequence (P43088 whole entry T294A) above, with Y92A, A294T counted along it

O=C(O)CCC/C=C\C[C@@H]1[C@@H](CC[C@@H](O)CCc2ccccc2)[C@H](O)C[C@@H]1O [LTPA, Latanoprost acid]
∆pEC50 (pEC50 of agonist to mutant minus pEC50 to WT) [1]: -1.8 and -2.1
∆pEC50 (pEC50 of agonist to mutant minus pEC50 to WT) ([2]; T294A mutant vs WT FP, IP1 accumulation, AD293 cells, single values of n = 3 independent samples): -2.0 and -1.8 and -1.9
effect of mutation on agonist affinity / potency (in words) ([2]; T294 to alanine vs WT FP): significantly decreased the potency
∆pEC50 (pEC50 of agonist to mutant minus pEC50 to WT) [3]: -2.3 and -2.1 and -2.2
∆pEC50 (pEC50 of agonist to mutant minus pEC50 to WT) [4]: -2.5 and -2.2
∆pEC50 (pEC50 of agonist to mutant minus pEC50 to WT) [5]: -1.5 and -1.4
EC50 [6]: 6.9 µM
selectivity enhancement compared to PGF2α ([7]; FP versus EP1 and EP3): more than 100 times
EC50 ([7]; FP): 0.0036 µM
effect of mutation on agonist affinity / potency (in words) [8]: significantly decreased the potency
effect of mutation on agonist activity / potency (in words) [9]: significantly decreased the potency
effect of mutation on agonist activity / potency (in words) [10]: significantly decreased the potency
∆pEC50 (pEC50 of agonist to mutant minus pEC50 to WT) [11]: -2.9 and -2.7
EC50 [12]: 17 µM
∆pEC50 (pEC50 of agonist to mutant minus pEC50 to WT) ([13]; S118N mutant vs WT FP, IP1 accumulation, AD293 cells, single values of n = 3 independent samples): -1.0 and -1.1 and -1.2
effect of mutation on agonist potency (in words) ([13]; S118 to asparagine vs WT FP): significantly reduced the potency
∆pEC50 (pEC50 of agonist to mutant minus pEC50 to WT) [14]: -1.0 and -0.9 and -0.8
effect of mutation on agonist activity / potency (in words) [15]: significantly decreased the potency
effect of mutation on agonist potency (in words) [16]: significantly decreased the potency
∆pEC50 (pEC50 of agonist to mutant minus pEC50 to WT) ([17]; S118A mutant vs WT FP, IP1 accumulation, AD293 cells, single values of n = 3 independent samples): -1.0 and -0.9
effect of mutation on agonist potency (in words) ([17]; S118 to alanine vs WT FP): significantly reduced the potency
∆pEC50 (pEC50 of agonist to mutant minus pEC50 to WT) [18]: -1.1 and -1.3 and -1.0
